This note sets out measurements from PMC12040169 (PLOS Biology, 2025).

SMILES strings stand for the structures.

This series is described as follows: in vitro. The conditions noted are these: human, hela cells, % viability.
On to `COc1cccc([C@H]2CN(C(=O)c3ccccc3)[C@@H]3CCN(Cc4ccccc4F)C[C@H]23)c1` [CBK285608], for which the viability (in general, a read-out of living cells in per cent, often relative to untreated cells) at 28.5 h, 10 µM is 97.6%.
For the compound `COc1cccc([C@H]2CN(C(=O)c3ccccc3)[C@@H]3CCN(Cc4cccs4)C[C@H]23)c1` [CBK285609], the viability at 28.5 h, 10 µM was found to be 102%.
The figure for `COc1cccc([C@H]2CN(C(=O)c3ccccc3)[C@@H]3CCN(Cc4ccsc4)C[C@H]23)c1` [CBK285611] is 104%; for `O=C(c1ccccc1)N1C[C@@H](c2ccsc2)[C@@H]2CN(Cc3ccccc3F)CC[C@@H]21` [CBK285612] it is 116%; for `O=C(c1ccccc1)N1C[C@@H](c2ccsc2)[C@@H]2CN(Cc3ccccc3Cl)CC[C@@H]21` [CBK285613] it is 101%.
The figure for `COc1ccc(CN2CC[C@H]3[C@@H](C2)[C@H](c2ccsc2)CN3C(=O)c2ccccc2)cc1` [CBK285614] is 97.6%; for `COc1ccccc1CN1CC[C@H]2[C@@H](C1)[C@H](c1ccsc1)CN2C(=O)c1ccccc1` [CBK285617] it is 96%; for `COc1cccc(C(NC(=O)c2cccc(Cn3ccnc3C)c2)c2ccccc2)c1` (stereo not shown) [CBK285620] it is 111%.
In the case of `CC(=O)N1CCc2cc(NCc3nc4ccccc4n3C(C)c3ccccc3)ccc21` (stereo not shown) [CBK285621], the viability at 28.5 h, 10 µM stood at 81.7%.
As for `COCCNC(=O)c1cc(C2CN(CCc3ccccc3)CCO2)nc2ccccc12` (stereo not shown) [CBK285622], the figure is 99.4%; as for `O=C(c1ccccc1)N1C[C@H](c2ccsc2)[C@H]2CN(Cc3cccs3)CC[C@H]21` [CBK285623], 95.8%; as for `COc1cccc([C@H]2CN(C(=O)c3ccccc3)[C@@H]3CCN(Cc4ccccc4)C[C@H]23)c1` [CBK285624], 88.2%.
Turning to `COc1cccc([C@H]2CN(C(=O)c3ccccc3)[C@@H]3CCN(Cc4cccc(F)c4)C[C@H]23)c1` [CBK285626], the viability at 28.5 h, 10 µM stood at 92.6%.
`Cc1cnccc1-c1c[nH]nc1-c1cccc(CNS(=O)(=O)c2ccc(F)c(F)c2)c1` [CBK285627]: the viability at 28.5 h, 10 µM turned out to be 96%.
As to `COc1ccc2c(c1)CC(C(=O)N1CCc3sccc3C1c1cccs1)CO2` (stereo not shown) [CBK285628], the viability at 28.5 h, 10 µM was found to be 110%.
As for `COc1cccc(CN2CCC(c3ncc(C(=O)Nc4ccc(F)cc4)c(C)n3)CC2)c1` [CBK285630], the figure is 89.8%.
The figure for `COc1ccc(-c2ccccc2NC(=O)c2cc(-n3cccn3)ccc2Cl)cc1` [CBK285634] is 91.3%; for `O=C(c1ccc(F)cc1)N1C[C@@H](c2ccsc2)[C@@H]2CN(Cc3ccccc3)CC[C@@H]21` [CBK285635] it is 94.7%; for `O=C(c1ccc(F)cc1)N1C[C@H](c2ccsc2)[C@H]2CN(Cc3cccs3)CC[C@H]21` [CBK285636] it is 114%.
The figure for `Cc1ccc(CN2CC[C@H]3[C@@H](C2)[C@H](c2ccsc2)CN3C(=O)c2ccc(F)cc2)cc1` [CBK285637] is 98.1%; for `Cc1ccccc1CN1CC[C@H]2[C@@H](C1)[C@H](c1ccsc1)CN2C(=O)c1ccc(F)cc1` [CBK285638] it is 102%.
Regarding `Cc1cccc(CN2CC[C@H]3[C@@H](C2)[C@H](c2ccsc2)CN3C(=O)c2ccc(F)cc2)c1` [CBK285639], the viability at 28.5 h, 10 µM is 94.9%.
With `O=C(c1ccc(F)cc1)N1C[C@@H](c2ccsc2)[C@@H]2CN(Cc3cccc(F)c3)CC[C@@H]21` [CBK285640], the viability at 28.5 h, 10 µM was 91.2%.
In the case of `Cc1nc(C2CCN(C(=O)C3CCC3)CC2)nc2c1CCCN2CCc1ccccc1` [CBK285645], the viability at 28.5 h, 10 µM turned out to be 97.3%.
The figure for `COc1ccc(C2(C(=O)NCc3ccc(-c4ccc(C(N)=O)c(C)n4)cc3)CCCC2)cc1` [CBK285647] is 96%.
The figure for `O=C(Nc1cccc(CCc2nc3ccccc3[nH]2)c1)c1ccc(Cn2cncn2)cc1` [CBK285648] is 89.1%; for `COc1ccc(-c2ccc(OC)cc2C(=O)Nc2ccc3c(c2)N(C)C(=O)CO3)cc1` [CBK285650] it is 92%.
As for `COc1ccccc1-c1ccc(NC(=O)c2ccc3c(c2)ncn3C)cc1` [CBK285652], the figure is 103%; as for `Cc1ccc(C2CCCN2C(=O)c2ccc(=O)n(CC(=O)N(C)c3ccccc3)c2)cc1C` (stereo not shown) [CBK285653], 107%.
As to `O=C(c1ccccc1F)N1C[C@H](c2ccsc2)[C@H]2CN(Cc3ccccc3)CC[C@H]21` [CBK285655], the viability at 28.5 h, 10 µM is 96.5%.
The figure for `O=C(c1ccccc1F)N1C[C@H](c2ccsc2)[C@H]2CN(Cc3ccccc3F)CC[C@H]21` [CBK285656] is 97.4%.
With `O=C(c1ccccc1F)N1C[C@H](c2ccsc2)[C@H]2CN(Cc3cccs3)CC[C@H]21` [CBK285657], the viability at 28.5 h, 10 µM came to 94.8%.
The figure for `Cc1ccc(CN2CC[C@@H]3[C@H](C2)[C@@H](c2ccsc2)CN3C(=O)c2ccccc2F)cc1` [CBK285658] is 96.5%; for `Cc1cccc(CN2CC[C@@H]3[C@H](C2)[C@@H](c2ccsc2)CN3C(=O)c2ccccc2F)c1` [CBK285659] it is 109%.
As to `Cc1cccn2cc(C(=O)N3CC(C(=O)N4CCN(c5ccccc5)CC4)C3)nc12` [CBK285663], the viability at 28.5 h, 10 µM amounted to 101%.
With `Cn1cnc2cc(C(=O)N3CC(C(=O)N4CCN(c5ccccc5)CC4)C3)ccc21` [CBK285664], the viability at 28.5 h, 10 µM is 82.5%.
Take `Cc1cc(NC(=O)CN2CC(C(=O)N3CCN(c4ccccc4)CC3)C2)no1` [CBK285665]: the viability at 28.5 h, 10 µM was found to be 112%.
The figure for `Cc1nc(C)c(C(=O)N2CC(C(=O)N3CCN(c4ccccc4)CC3)C2)s1` [CBK285666] is 93.4%; for `CCc1noc(C)c1C(=O)N1CC(C(=O)N2CCN(c3ccccc3)CC2)C1` [CBK285667] it is 107%.
Take `Cc1nc(C2CCN(Cc3cccc(F)c3)CC2)ncc1C(=O)Nc1ccc(F)cc1` [CBK285668]: the viability at 28.5 h, 10 µM was 107%.
The figure for `CCn1cc(CN2CCC(c3cc(Cc4cccc(OC)c4)cc(C)n3)CC2)c(C)n1` [CBK285671] is 89.2%; for `Cn1cc(-c2ccc(C3CCCCN3Cc3ccnc4ccccc34)cn2)cn1` (stereo not shown) [CBK285672] it is 93.3%; for `CC(NC(=O)Cc1c[nH]c(=O)[nH]c1=O)c1cc2cc(Cl)ccc2o1` (stereo not shown) [CBK285673] it is 100%.
With `O=C(Cc1c[nH]c(=O)[nH]c1=O)Nc1ncc(Cc2ccc(F)cc2)s1` [CBK285674], the viability at 28.5 h, 10 µM was determined as 103%.
`CN(C)C(=O)C1(Cc2ccccc2-c2ccccc2)CCN(C(=O)c2cccc(F)c2)CC1` [CBK285675]: the viability at 28.5 h, 10 µM stood at 111%.
As for `Cc1cc(C(=O)N2CCC(Cc3ccccc3-c3ccccc3)(C(=O)N(C)C)CC2)cs1` [CBK285676], the viability at 28.5 h, 10 µM came to 116%.
The figure for `Cc1ccc(C(=O)N2CCC(Cc3ccccc3-c3ccccc3)(C(=O)N(C)C)CC2)s1` [CBK285677] is 107%; for `CCCN1CCN(C(=O)c2cnc(C)cn2)C(Cc2cccc(-c3cccs3)c2)C1=O` (stereo not shown) [CBK285678] it is 87.2%.
`O=C(Cc1ccc2c(c1)CCCO2)Nc1c(OCCn2cccn2)ccc2ccccc12` [CBK285679]: the viability at 28.5 h, 10 µM stood at 96.9%.
The figure for `COCCNC(=O)c1sc2ccccc2c1C1CCN(Cc2ccc3ncccc3c2)C1` (stereo not shown) [CBK285680] is 85.2%; for `COc1cc(CCc2cc(O)n3nc(C)c(-c4ccc(Cl)cc4)c3n2)on1` [CBK285681] it is 91.3%.
As for `CN(C)C(=O)C1(Cc2ccccc2-c2cccs2)CCN(C(=O)Cc2ccccc2)CC1` [CBK285687], the figure is 92.6%; as for `O=C(NCCc1ccc(F)cc1)C1CN(C(=O)c2ccc3nsnc3c2)C1` [CBK285690], 95.8%.
Turning to `COc1cc(CCc2cc(O)n3nc(-c4cccc(C)c4)c(C)c3n2)on1` [CBK285691], the viability at 28.5 h, 10 µM is 99.8%.
As for `CNC(=O)C1(Cc2ccccc2-c2cccc(F)c2)CCN(C(=O)Cc2ccccc2)CC1` [CBK285692], the figure is 115%.
As for `CCCn1cnc2cc(NC(=O)C3CCN(S(=O)(=O)c4ccc(F)cc4)C3)ccc21` (stereo not shown) [CBK285704], the figure is 85.8%.
The figure for `Cc1nnnn1-c1ccc(CC(=O)N2CCc3sccc3C2c2ccco2)cc1` (stereo not shown) [CBK285705] is 88.2%; for `O=C(c1ccc(N2CCCC2)cc1)N1CCc2sccc2C1c1ccco1` (stereo not shown) [CBK285707] it is 102%; for `Cc1ccccc1-c1ccccc1CC1(C(=O)N(C)C)CCN(C(=O)CC(C)C)CC1` [CBK285714] it is 93.6%.
For the compound `Cc1ccccc1-c1ccccc1CC1(C(=O)N(C)C)CCN(C(=O)C2CCCCC2)CC1` [CBK285718], the viability at 28.5 h, 10 µM came to 98.2%.
With `COc1ccccc1CN1CCC(Cc2ccccc2-c2ccccc2)(C(N)=O)CC1` [CBK285719], the viability at 28.5 h, 10 µM turned out to be 101%.
As for `Cc1ccccc1-c1ccccc1CC1(C(N)=O)CCN(C(=O)CC2CCCCC2)CC1` [CBK285723], the figure is 103%; as for `Cc1ccccc1-c1ccccc1CC1(C(N)=O)CCN(C(=O)c2cccc(F)c2)CC1` [CBK285726], 94.2%; as for `Cc1ccc(CC(=O)N2CCC(Cc3ccccc3-c3ccccc3C)(C(N)=O)CC2)cc1` [CBK285727], 98.2%.
For `Cc1cccc(CC(=O)N2CCC(Cc3ccccc3-c3ccccc3C)(C(N)=O)CC2)c1` [CBK285728], the viability at 28.5 h, 10 µM was 93.4%.
As for `COc1cccc(CC(=O)N2CCC(Cc3ccccc3-c3ccccc3)(C(N)=O)CC2)c1` [CBK285730], the figure is 96.7%.
Take `Cc1ccccc1-c1ccccc1CC1(C(=O)N(C)C)CCN(C(=O)C2CC=CCC2)CC1` (stereo not shown) [CBK285733]: the viability at 28.5 h, 10 µM was 97.2%.
As for `CC1CC(=O)N(c2cccc(C(=O)Nc3cccc(-c4cccc(F)c4)c3)c2)C1=O` (stereo not shown) [CBK285734], the figure is 103%.
The figure for `COc1ccccc1C(=O)N1CCC(Cc2ccccc2-c2ccccc2)(C(N)=O)CC1` [CBK285739] is 96.4%; for `Cc1ccc(CC(=O)N2CCC(Cc3ccccc3-c3ccccc3)(C(N)=O)CC2)cc1` [CBK285740] it is 110%.
